Active and inactive are the calls of the source. The calls are words filed in the database; no cut-off is given here.
Experiments:
[1] = Cytotoxicity against human SH-SY5Y cells assessed as cell viability at 3.1 uM measured after 2 hrs by MTT assay relative to control; assay type: cell-based; details: read-out: Activity
[2] = Cytotoxicity against human SH-SY5Y cells assessed as cell viability at 0.8 uM measured after 2 hrs by MTT assay relative to control; assay type: cell-based; details: read-out: Activity
[3] = Cytotoxicity against human SH-SY5Y cells assessed as cell viability at 50 uM measured after 2 hrs by MTT assay relative to control; assay type: cell-based; details: read-out: Activity
[4] = Cytotoxicity against human SH-SY5Y cells assessed as cell viability at 1.6 uM measured after 24 hrs by MTT assay relative to control; assay type: cell-based; details: read-out: Activity
[5] = Cytotoxicity against human SH-SY5Y cells assessed as cell viability at 25 uM measured after 24 hrs by MTT assay relative to control; assay type: cell-based; details: read-out: Activity
[6] = Cytotoxicity against human SH-SY5Y cells assessed as cell viability at 3.1 uM measured after 24 hrs by MTT assay relative to control; assay type: cell-based; details: read-out: Activity
[7] = Cytotoxicity against human SH-SY5Y cells assessed as cell viability at 25 uM measured after 2 hrs by MTT assay relative to control; assay type: cell-based; details: read-out: Activity
[8] = Cytotoxicity against human SH-SY5Y cells assessed as cell viability at 100 uM measured after 24 hrs by MTT assay relative to control; assay type: cell-based; details: read-out: Activity
[9] = Cytotoxicity against human SH-SY5Y cells assessed as cell viability at 12.5 uM measured after 2 hrs by MTT assay relative to control; assay type: cell-based; details: read-out: Activity
[10] = Cytotoxicity against human SH-SY5Y cells assessed as cell viability at 6.3 uM measured after 24 hrs by MTT assay relative to control; assay type: cell-based; details: read-out: Activity
[11] = Cytotoxicity against human SH-SY5Y cells assessed as cell viability at 1.6 uM measured after 2 hrs by MTT assay relative to control; assay type: cell-based; details: read-out: Activity
[12] = Cytotoxicity against human SH-SY5Y cells assessed as cell viability at 12.5 uM measured after 24 hrs by MTT assay relative to control; assay type: cell-based; details: read-out: Activity
[13] = Cytotoxicity against human SH-SY5Y cells assessed as cell viability at 6.3 uM measured after 2 hrs by MTT assay relative to control; assay type: cell-based; details: read-out: Activity
[14] = Cytotoxicity against human SH-SY5Y cells assessed as cell viability at 100 uM measured after 2 hrs by MTT assay relative to control; assay type: cell-based; details: read-out: Activity
[15] = Cytotoxicity against human SH-SY5Y cells assessed as cell viability at 0.8 uM measured after 24 hrs by MTT assay relative to control; assay type: cell-based; details: read-out: Activity
[16] = Antioxidant activity assessed as DPPH radical scavenging activity incubated for 60 mins in absence of light; assay type: functional
SH-SY5Y [17] = test: Antioxidant activity in human SH-SY5Y cells assessed as inhibition of H2O2-induced DCFH oxidation measured after 1 hr by DCFH-DA dye based fluorescence assay; assay type: functional, cell-based
[18] = Cytotoxicity against human SH-SY5Y cells assessed as cell viability at 50 uM measured after 24 hrs by MTT assay relative to control; assay type: cell-based; details: read-out: Activity
SH-SY5Y [19] = test: Cytoprotective activity against DMSO-induced toxicity in human SH-SY5Y cells; assay type: functional, cell-based
[20] = Permeability of the compound at pH 7.4 by PAMPA-BBB assay; assay type: ADME; details: read-out: permeability

| Structure (SMILES) | viability at 2 h, 3.1 µM [1] | viability at 2 h, 0.8 µM [2] | viability at 2 h, 50 µM [3] | viability at 24 h, 1.6 µM [4] | viability at 24 h, 25 µM [5] | viability at 24 h, 3.1 µM [6] | viability at 2 h, 25 µM [7] | viability at 24 h, 100 µM [8] | viability at 2 h, 12.5 µM [9] | viability at 24 h, 6.3 µM [10] | viability at 2 h, 1.6 µM [11] | viability at 24 h, 12.5 µM [12] | viability at 2 h, 6.3 µM [13] | viability at 2 h, 100 µM [14] | viability at 24 h, 0.8 µM [15] | IC50 [16] | Activity (SH-SY5Y [17]) | IC50 (SH-SY5Y [17]) | viability at 24 h, 50 µM [18] | Papp [20] | other results |
| --- | --- | --- | --- | --- | --- | --- | --- | --- | --- | --- | --- | --- | --- | --- | --- | --- | --- | --- | --- | --- | --- |
| COc1cc2c(cc1O)CCC(C)(CC(=O)O)O2 (stereo not drawn) | 100% | 100% | 100% | 100% | 92.5% | 100% | 100% | 53.1% | 100% | 100% | 100% | 92% | 100% | 79.9% | 90.2% | 8.4 µM | Dose-dependent effect | 32.3 µM | 61% | – | – |
| COc1cc2c(cc1O)CCC(C)(CC(=O)N[C@@H](C)C(=O)O)O2 (stereo partly drawn) | 79.5% | 87.6% | 86.6% | 100% | 100% | 100% | 89.5% | 68.5% | 85% | 94.6% | 86.9% | 100% | 86.4% | 70.1% | 100% | 14.7 µM | Dose-dependent effect | 92.6 µM | 100% | 0.06 ×10⁻⁶ cm/s | Activity (SH-SY5Y [19]): Active |
| COc1cc2c(cc1O)CCC(C)(CCNC(=O)/C=C(C)/C=C/C=C(C)/C=C/C1=C(C)CCCC1(C)C)O2 (stereo not drawn) | 97.3% | 87.4% | 97.4% | 99.1% | 91.2% | 100% | 100% | 47.9% | 100% | 100% | 93.6% | 100% | 90.5% | 57.7% | 89.6% | 16.2 µM | Dose-dependent effect | > 300 µM | 91.7% | – | – |
| COc1cc2c(cc1O)CCC(C)(CC(=O)NCCc1ccc(O)c(O)c1)O2 (stereo not drawn) | 100% | 100% | 100% | 88.9% | 79.1% | 94.8% | 100% | 58.4% | 100% | 98.4% | 100% | 84.2% | 100% | 100% | 100% | 6.9 µM | Dose-dependent effect | 21.6 µM | 77.5% | 0.2 ×10⁻⁶ cm/s | – |
| Cc1c(C)c2c(c(C)c1O)CCC(C)(C(=O)O)O2 (stereo not drawn) [TROLOX] | 97.6% | 93.2% | 92.4% | 87.6% | 86.4% | 79.6% | 99% | 68% | 95% | 83.7% | 88.5% | 82.8% | 97.4% | 86.5% | 84.6% | 15.7 µM | Dose-dependent effect | 82.3 µM | 81.9% | 1.04 ×10⁻⁶ cm/s | – |
| COc1cc2c(cc1O)CCC(C)(CC(=O)N[C@H](C(=O)O)C(C)C)O2 (stereo partly drawn) | 98% | 93.3% | 100% | 82.1% | 76.1% | 79.1% | 96.6% | 61% | 96.4% | 82% | 92.6% | 82.6% | 99.7% | 85.9% | 75.7% | 17.3 µM | Dose-dependent effect | 43.8 µM | 79.3% | 0.03 ×10⁻⁶ cm/s | – |
| COc1cc2c(cc1O)CCC(C)(CC(=O)N1CCC[C@H]1C(=O)O)O2 (stereo partly drawn) | 100% | 100% | 100% | 93.2% | 95.8% | 100% | 100% | 79.6% | 100% | 100% | 99.2% | 100% | 98.8% | 78.8% | 92.8% | 19.1 µM | Dose-dependent effect | 41.4 µM | 100% | 0.04 ×10⁻⁶ cm/s | – |
| COc1cc2c(cc1O)CCC(C)(CC(=O)N[C@@H](CCC(N)=O)C(=O)O)O2 (stereo partly drawn) | 100% | 92.8% | 100% | 89.4% | 91.8% | 100% | 100% | 58.2% | 100% | 84% | 97.1% | 84.8% | 100% | 86.5% | 92.8% | 15 µM | Dose-dependent effect | 78 µM | 83.2% | – | – |
